Source: patent publication US3984554A, “Animal fodder compositions containing a 4-amino-pyrimido-( 4,5,b)-quinoxaline-5,10-dioxide and method of using same” (Bayer Aktiengesellschaft, priority 1970, dated 1976)
In brackets after ≈: the same amount, converted by molar mass.

Key:
Escherichia coli A 261 = experiment: Minimum inhibitory concentration (MIC) in the plate test; assay type: cell-based; conditions: A261, pH 7.4
Description: (§1) The compounds according to the invention are effective against Gram-negative and Gram-positive bacteria. Favorable inhibition values are obtained in the plate test (Table 1) against staphylococci and streptococci which are Gram-positive bacteria, and against enterobacteria (for example Escherichia coli, Proteus and Klebsiella) which are Gram-negative bacteria.
(§2) Minimum inhibitory concentration (MIC) in the plate test:
(§3) The medium used had the following composition
(§4) Disodium phosphate 2.0 g
(§5) Adenine sulphate 0.01 g
(§6) Guanine hydrochloride 0.01 g
(§7) 1000 ml of distilled water
(§8) pH value of the medium:
(§9) Minimum inhibitory concentrations in γ/ml

Escherichia coli C 165 = experiment: as above; assay type: cell-based; conditions: C165, pH 7.4
Description: as §1, §2, §3, §4, §5, §6, §7, §8, §9

[1] = test system: Staphylococcus aureus 133; experiment: as above; assay type: cell-based; conditions: pH 7.4
Description: as §1, §2, §3, §4, §5, §6, §7, §8, §9

Proteus vulgaris = experiment: as above; assay type: cell-based; conditions: pH 7.4
Description: as §1, §2, §3, §4, §5, §6, §7, §8, §9

Streptococcus pyogenes W = experiment: as above; assay type: cell-based; conditions: pH 7.4
Description: as §1, §2, §3, §4, §5, §6, §7, §8, §9

[2] = test system: Pseudomonas aeruginosa Bonn; experiment: as above; assay type: cell-based; conditions: pH 7.4
Description: as §1, §2, §3, §4, §5, §6, §7, §8, §9

Klebsiella 8085 = experiment: as above; assay type: cell-based; conditions: pH 7.4
Description: as §1, §2, §3, §4, §5, §6, §7, §8, §9

[3] = Chick fattening experiment (fodder additive); assay type: in vivo; conditions: chicks, 20 ppm in fodder; for Ratio of total weight increase/control: control 100.0
Description: The good effectiveness of the compounds according to the invention as fodder additives can be seen from the chick fattening experiment described below (Table 2).
The substances, ground with the fodder, were fed to one-day old chicks. The feeding lasted for seven weeks. Table 2 below gives the experimental data for the compound obtainable according to Example 2, for each of the 7 weeks.

Row | SMILES | MIC (Escherichia coli A 261) | MIC (Escherichia coli C 165) | MIC [1] | MIC (Proteus vulgaris) | MIC (Streptococcus pyogenes W) | MIC [2] | MIC (Klebsiella 8085) | also measured
1 | CCCNc1ncnc2c1[n+]([O-])c1ccccc1[n+]2[O-] [Example 3] | 100 µg/mL (≈ 369 µM) | 100 µg/mL (≈ 369 µM) | 10 µg/mL (≈ 36.9 µM) | 100 µg/mL (≈ 369 µM) | 20 µg/mL (≈ 73.7 µM) | 150 µg/mL (≈ 553 µM) | 100 µg/mL (≈ 369 µM) | –
2 | CCCCNc1ncnc2c1[n+]([O-])c1ccccc1[n+]2[O-] [Example 5] | – | – | 10 µg/mL (≈ 35 µM) | – | 20 µg/mL (≈ 70.1 µM) | – | – | –
3 | [O-][n+]1c2ccccc2[n+]([O-])c2c(NCCO)ncnc21 [Example 7] | 100 µg/mL (≈ 366 µM) | 100 µg/mL (≈ 366 µM) | 100 µg/mL (≈ 366 µM) | 100 µg/mL (≈ 366 µM) | 10 µg/mL (≈ 36.6 µM) | 100 µg/mL (≈ 366 µM) | 150 µg/mL (≈ 549 µM) | –

Further compounds by falling MIC [1], results first:

Row | MIC (Escherichia coli A 261) | MIC (Escherichia coli C 165) | MIC [1] | MIC (Proteus vulgaris) | MIC (Streptococcus pyogenes W) | MIC [2] | MIC (Klebsiella 8085) | SMILES | also measured
4 | 100 µg/mL (≈ 369 µM) | 100 µg/mL (≈ 369 µM) | 10 µg/mL (≈ 36.9 µM) | 100 µg/mL (≈ 369 µM) | 20 µg/mL (≈ 73.7 µM) | 150 µg/mL (≈ 553 µM) | – | CC(C)Nc1ncnc2c1[n+]([O-])c1ccccc1[n+]2[O-] [Example 4] | –
5 | – | – | 10 µg/mL (≈ 32.1 µM) | – | – | – | – | [O-][n+]1c2ccccc2[n+]([O-])c2c(NC3CCCCC3)ncnc21 [Example 6] | –
6 | 20 µg/mL (≈ 77.7 µM) | 160 µg/mL (≈ 622 µM) | 5 µg/mL (≈ 19.4 µM) | 10 µg/mL (≈ 38.9 µM) | 20 µg/mL (≈ 77.7 µM) | 150 µg/mL (≈ 583 µM) | 10 µg/mL (≈ 38.9 µM) | CCNc1ncnc2c1[n+]([O-])c1ccccc1[n+]2[O-] [Example 2] | Total weight increase ([3]; week 1, control 84): 92 g; Ratio of total weight increase/control ([3]; week 1): 109.5%; Ratio of total weight increase/control ([3]; week 2): 105.6%; Total weight increase ([3]; week 2, control 248): 262 g; Ratio of total weight increase/control ([3]; week 3): 108.6%; Total weight increase ([3]; week 3, control 429): 466 g; Ratio of total weight increase/control ([3]; week 4): 111.7%; Total weight increase ([3]; week 4, control 607): 678 g; Ratio of total weight increase/control ([3]; week 5): 107.7%; Total weight increase ([3]; week 5, control 922): 993 g; Ratio of total weight increase/control ([3]; week 6): 104.8%; Total weight increase ([3]; week 6, control 1250): 1310 g; Ratio of total weight increase/control ([3]; week 7): 106.4%; Total weight increase ([3]; week 7, control 1479): 1574 g
7 | 5 µg/mL (≈ 20.6 µM) | 5 µg/mL (≈ 20.6 µM) | 2.5 µg/mL (≈ 10.3 µM) | 5 µg/mL (≈ 20.6 µM) | 20 µg/mL (≈ 82.2 µM) | 50 µg/mL (≈ 206 µM) | 5 µg/mL (≈ 20.6 µM) | CNc1ncnc2c1[n+]([O-])c1ccccc1[n+]2[O-] [Example 1, 4-methylamino-pyrimido-(4,5,b)-quinoxaline-5,10-dioxide] | –
